According to patent US7446125B2, “Derivatives of nitroproline compounds, processes of manufacture and uses in the treatment of integrin mediated disorders” (Universidad del Pais Vasco, priority 2005, dated 2008):

Experiments:
[1] = target: T1, VLA-4 (Mus musculus, UniProt P09055+Q00651); assay: B16M (MB16) melanoma cell adhesion to primary cultured hepatic sinusoidal endothelial (HSE) cells; format: cell-based, murine; conditions: B16M cells preincubated with compound, 50 μg/1×10^6 MB16 cells; TNF-alpha-treated HSE or H2O2-treated B16M cells; FIG. 6
T1 construct: The tumor used is the B16F10 subline of MB16, the VLA-4 expression of which is constitutive; endogenous in cells; host or cells: B16F10 (MB16/B16M) murine melanoma cells; VCAM-1 on primary mouse HSE cells
Experimental: The tumor used is the B16F10 subline of MB16, the VLA-4 expression of which is constitutive.
The MB16 tumor cells (subline B16F10) are cultured in incubator at 37° C., with 5% CO2 atmosphere, in DMEM medium (Dulbecco's modified Eagle's medium), adjusted to pH 7.4 and supplemented with penicillin (100 U/ml), streptomycin (100 μg/ml) and 5% fetal bovine serum. The cells are maintained and subcultured according to a previously-described method (Vidal-Vanaclocha et al. Cancer Research, 1994, 54, 2667).
The hepatic sinusoidal cells are isolated from C57BU6J mice (males, age 6-8 weeks) supplied by IFFA Credo (L'Arbreole, France). For their purification and identification, the previously-described protocol is employed (Vidal-Vanaclocha et al. Hepatology, 1993, 18, 328-339). The primary HSE cell cultures are obtained by seeding the cells on a Type I collagen substrate (Sigma Chemicals Co, St Louis, Mo.) in the presence of DMEM, supplementing with penicillin (100 U/ml), streptomycin (100 μg/ml) and 10% fetal bovine serum, at 37° C. in 5% CO2 atmosphere.
The endothelial cells are isolated 24 hours prior to the adhesion test and are seeded on 24-well plate, maintaining them a minimum of 4 hours in free serum medium before incubating them with DMEM in the presence or not of 10 ng/ml TNF-α for 6 hours. The B16 cells are marked with 40 μg/ml of the BCECF-AM fluorescent probe (carboxyfluorescein, 2′,7′-bis-(2-carboxy-etyl)-5-(6)carboxyfluorescein aminoxymethyl ester), supplied by Molecular Probes Inc. (Oregon, USA). Afterward, a washing with DMEM medium without serum is performed to remove the excess flurorchromium, and the compounds of general formula I are incubated at 37° C. for 15 minutes at the concentration of 50 μg/1×10^6 MB16 cells. This is followed by two washings, the number of visible cells being calculated by means of the trypan blue dye exclusion test, and they are resuspended to a concentration of 2×10^5 cells/ml. One (1) ml of the MB16 cell suspension is added to each well on the primary HSE cell culture plate, and the co-cultures are incubated at 37° C. for 8 minutes. The percentage of cellular adhesion is calculated by means of a previously-described fluorescence measurement system (Vidal-Vanaclocha et al. Cancer Research, 1994, 54, 2667).
Next, the potential VLA-4 antagonism of compounds 11 was tested through a previously established model on VLA-4NCAM-1-interaction-dependent B16M cell adhesion to primary cultured hepatic sinusoidal endothelial (HSE) cells in vitro.

[2] = tested on: B16M cells; assay: Hepatic metastasis of intrasplenically injected, compound-pretreated B16M cells; format: in vivo, C57BU6J mice; conditions: mice intrasplenically injected with pretreated B16M cells relative to untreated cells; P<0.01; FIG. 7
Experimental: A description is provided in following of the effect of the le compound on the metastatic capacity of MB16 in in-vivo tests. For this purpose, the MB16 cells treated with le are inoculated intrasplenically in C57BU6J mice (3×10^5 viable cells per animal, resuspended in endotoxin-free sterile saline solution), and the microvascular retention within the first 18 hours and their ability to develop metastasis on day 12 following the tumor injection is determined.
(§1) B16M cells were cultured for 24 hours in the presence 50 μg/ml of compound 11d, or […] anti-murine VLA-4 antibody. Cultured cells were fixed and processed for the immunohistochemical detection of Ki-67 antigen expression. Next, a computed-aid microscopic image analysis system was used to discriminate stained cells (brown nuclei) and calculate the average number of Ki-67 antigen-expressing cells per 1×10^4 cells. The results are the mean±SD of 6 independent fields, from 3 different experiments (n=18).

[3] = tested on: B16M cells; assay: Cell viability, cytotoxicity, intracellular oxidative metabolism and proliferation rate of treated melanoma cells; format: cell-based, murine
Experimental: as §1

[4] = target: T1, VLA-4; assay: B16M (MB16) cell adhesion to immobilized recombinant human VCAM-1; format: cell-based, murine; conditions: IL-1b (interleukin-1b)-treated melanoma cells; FIG. 3
[5] = tested on: VEGF production by soluble VCAM-1-stimulated B16M cells; assay: VEGF production by soluble VCAM-1-treated B16M cells in vitro; format: cell-based, murine; conditions: soluble VCAM-1-stimulated cells; FIG. 4
[6] = Solubility in water; format: physicochemical; conditions: compared with 11f

T1 sequence (Q00651 41-1039): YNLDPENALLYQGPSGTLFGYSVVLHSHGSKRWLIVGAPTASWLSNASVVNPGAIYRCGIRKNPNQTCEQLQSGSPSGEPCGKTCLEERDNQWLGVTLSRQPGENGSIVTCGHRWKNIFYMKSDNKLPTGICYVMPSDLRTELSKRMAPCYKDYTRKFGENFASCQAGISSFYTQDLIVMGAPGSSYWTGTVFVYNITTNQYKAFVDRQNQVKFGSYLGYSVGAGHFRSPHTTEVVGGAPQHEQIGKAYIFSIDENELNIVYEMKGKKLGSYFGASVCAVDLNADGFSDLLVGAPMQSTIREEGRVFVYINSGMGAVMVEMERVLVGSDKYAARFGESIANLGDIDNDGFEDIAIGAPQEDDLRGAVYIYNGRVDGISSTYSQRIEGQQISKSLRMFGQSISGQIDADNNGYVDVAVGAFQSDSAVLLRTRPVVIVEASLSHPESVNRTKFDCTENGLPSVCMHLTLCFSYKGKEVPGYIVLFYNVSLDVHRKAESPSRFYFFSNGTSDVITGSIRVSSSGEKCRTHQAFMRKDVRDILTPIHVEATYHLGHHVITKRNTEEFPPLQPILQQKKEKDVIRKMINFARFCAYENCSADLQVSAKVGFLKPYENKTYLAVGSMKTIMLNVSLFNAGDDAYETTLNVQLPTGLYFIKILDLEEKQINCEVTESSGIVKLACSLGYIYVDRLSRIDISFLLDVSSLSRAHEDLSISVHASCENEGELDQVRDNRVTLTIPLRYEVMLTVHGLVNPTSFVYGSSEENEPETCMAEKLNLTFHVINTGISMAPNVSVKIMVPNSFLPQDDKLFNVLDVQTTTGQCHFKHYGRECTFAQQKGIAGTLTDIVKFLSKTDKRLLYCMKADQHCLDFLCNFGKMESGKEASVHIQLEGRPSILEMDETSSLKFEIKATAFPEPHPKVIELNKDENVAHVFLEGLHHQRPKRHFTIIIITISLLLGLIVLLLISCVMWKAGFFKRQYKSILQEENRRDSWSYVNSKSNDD
T1 sequence (P09055 21-798): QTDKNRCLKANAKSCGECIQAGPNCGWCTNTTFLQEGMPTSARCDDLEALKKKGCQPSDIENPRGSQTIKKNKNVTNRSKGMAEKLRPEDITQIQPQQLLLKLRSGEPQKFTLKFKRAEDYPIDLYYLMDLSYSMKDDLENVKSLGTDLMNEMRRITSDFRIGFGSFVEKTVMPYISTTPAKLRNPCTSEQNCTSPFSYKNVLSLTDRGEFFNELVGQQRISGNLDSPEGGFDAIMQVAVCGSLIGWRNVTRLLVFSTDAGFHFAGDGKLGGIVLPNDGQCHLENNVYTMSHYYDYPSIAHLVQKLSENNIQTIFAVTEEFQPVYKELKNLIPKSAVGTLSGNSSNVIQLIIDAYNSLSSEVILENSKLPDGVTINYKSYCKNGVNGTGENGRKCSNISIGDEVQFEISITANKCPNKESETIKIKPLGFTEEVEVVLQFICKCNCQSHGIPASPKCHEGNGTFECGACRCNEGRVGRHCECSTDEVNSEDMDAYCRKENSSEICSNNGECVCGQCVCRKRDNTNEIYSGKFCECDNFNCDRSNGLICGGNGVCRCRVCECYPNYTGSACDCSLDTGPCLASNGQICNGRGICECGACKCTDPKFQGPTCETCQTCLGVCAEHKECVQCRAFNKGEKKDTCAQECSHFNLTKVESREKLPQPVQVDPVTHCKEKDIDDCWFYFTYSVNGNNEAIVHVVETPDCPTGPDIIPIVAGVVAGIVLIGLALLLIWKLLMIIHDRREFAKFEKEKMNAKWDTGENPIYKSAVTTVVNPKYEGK

Q: Which results are given for `CC(C)[C@H](OCc1ccccc1)[C@H]1[C@H]([N+](=O)[O-])[C@H](C(C)(C)C)N[C@@H]1C(=O)NCC(=O)O` [Compound 11b, 2-[(2S,3R,4S,5S)-5-tert-Butyl-3-[(S)-1-(benzyloxy)-2-methylpropyl]-4-nitropyrrolidine-2-carboxamido]acetic acid]?
A: melting point: 119 to 120 °C; antiadhesive activity (B16M cell adhesion to HSE cells) [1]: did not show any significant antiadhesive activity

Q: What does the source list for `CC[C@H](C)[C@H](OCc1ccccc1)[C@H]1[C@H]([N+](=O)[O-])[C@H](c2ccccc2)N[C@@H]1C(=O)NCC(=O)O` [Compound 11d, 2-[(2S,3R,4S,5S)-3-[(1S,2S)-1-(Benzyloxy)-2-methylbutyl]-4-nitro-5-phenyl-pyrrolidine-2-carboxamido]acetic acid]?
A: decrease of metastasis density [2]: 60%; decrease of metastasis volume [2]: 95%; cell viability and cytotoxicity, intracellular oxidative metabolism, cell-proliferation rates [3]: excluded that antimetastatic effects of 11d compound may have been caused by indirect effects on cell functions; adhesion of melanoma cells to immobilized VCAM-1 [4]: completely abrogated; VEGF production induced by soluble VCAM-1 [5]: prevented; solubility in water [6]: higher solubility in water; antiadhesive activity (B16M cell adhesion to HSE cells) [1]: comparable antiadhesive activity to monoclonal antibodies against murine VLA-4

Q: For `CC(C)[C@H](OCc1c(F)cccc1F)[C@H]1[C@H]([N+](=O)[O-])[C@H](c2ccccc2)N[C@@H]1C(=O)NCC(=O)O` [Compound 11e, 2-[(2S,3R,4S,5S)-3-[(S)-1-(2,6-Difluorobenzyloxy)-2-methylpropyl]-4-nitro-5-phenyl-pyrrolidine-2-carboxamido]acetic acid], which “antiadhesive activity (B16M cell adhesion to HSE cells)” value (“antiadhesive activity” for short) [1] is on record?
A: almost inactive

Q: For `CC[C@H](C)[C@H](OCc1ccccc1)[C@H]1[C@H]([N+](=O)[O-])[C@H](C2CCCCC2)N[C@@H]1C(=O)NCC(=O)O` [Compound 11f, 2-[(2S,3R,4S,5S)-3-[(1S,2S)-1-(benzyloxy)-2-methylbutyl]-5-cyclohexyl-4-nitropyrrol-idine-2-carboxamido]acetic acid], which “antiadhesive activity” value [1] is on record?
A: best activity in vitro

Q: For `CC[C@H](C)[C@H](OCc1ccccc1)[C@H]1[C@H]([N+](=O)[O-])[C@H](C2CC2)N[C@@H]1C(=O)NCC(=O)O` [Compound 11h, 2-[(2S,3R,4S,5S)-3-[(1S,2S)-1-(benzyloxy)-2-methylbutyl]-5-cyclopropyl-4-nitropyrrol-idine-2-carboxamido]acetic acid], which “antiadhesive activity” value [1] is on record?
A: did not show any significant antiadhesive activity

Q: With `CC[C@H](C)[C@H](OCc1ccccc1)[C@@H]1[C@H]([N+](=O)[O-])[C@H](c2ccccc2)N[C@]1(C)C(=O)NCC(=O)O` [Compound 11j, 2-[(2S,3R,4S,5S)-3-[(1S,2S)-1-(Benzyloxy)-2-methylbutyl]-2-methyl-4-nitro-5-phenyl-pyrrolidine-2-carboxamido]acetic acid] as the molecule, how does the “antiadhesive activity” value [1] read?
A: did not result in a significant loss of activity
